Laboratory results taken from PubChem BioAssay AID270 (DTP/NCI, 2004).
Several values for one entry are separate records, joined by “and”; a condition that tells them apart may be missing. Identical values can stand only once. Inconclusive results are not listed.

System: BDF1 mice, s.c. Lewis lung carcinoma, T/C %
Test: NCI In Vivo Anticancer Drug Screen. Data for tumor model Lewis Lung Carcinoma (subcutaneous) in B6D2F1 (BDF1) mice
Experimental: The antitumor activity of compounds was measured in mice bearing transplantable tumors. Survival or tumor size were measured and the results are expressed as the measurement made in the treated group (T) divided by the measurement made in the vehicle treated control group (C). The tumor model used in this assay is Lewis Lung Carcinoma (subcutaneous) in B6D2F1 (BDF1) mice

[1] = endpoint: median survival time, dose: 2.0 mg/kg/injection, schedule: Q01DX009 (ip), vehicle: Klucel (hydroxypropylcellulose) (HPC), higher = longer survival

O=CC(NC(=O)N(CCCl)N=O)C(O)C(O)C(O)CO (centres undefined) was tested, and the T/C (endpoint: median survival time, dose: 1.25 mg/kg/injection, schedule: Q01DX009 (ip), vehicle: saline, higher = longer survival) was 121 % of control, the T/C (endpoint: median survival time, dose: 2.5 mg/kg/injection, schedule: Q01DX009 (ip), vehicle: saline, higher = longer survival) was 112 % of control and the T/C (endpoint: median survival time, dose: 3.3 mg/kg/injection, schedule: Q01DX009 (ip), vehicle: saline, higher = longer survival) was 105 % of control. For the same molecule, the T/C (endpoint: median survival time, dose: 4.9 mg/kg/injection, schedule: Q01DX009 (ip), vehicle: saline, higher = longer survival) was 102 % of control, the T/C (endpoint: median survival time, dose: 5.0 mg/kg/injection, schedule: Q01DX009 (ip), vehicle: saline, higher = longer survival) was 118 % of control and the T/C (endpoint: median survival time, dose: 7.4 mg/kg/injection, schedule: Q01DX009 (ip), vehicle: saline, higher = longer survival) was 96 % of control. The T/C (endpoint: median survival time, dose: 10.0 mg/kg/injection, schedule: Q01DX001 (ip), vehicle: Klucel (hydroxypropylcellulose) (HPC), higher = longer survival) was 88 % of control and 109 % of control, the T/C (endpoint: median survival time, dose: 10.0 mg/kg/injection, schedule: Q01DX009 (ip), vehicle: saline, higher = longer survival) was 111 % of control and the T/C (endpoint: median survival time, dose: 12.0 mg/kg/injection, schedule: Q04DX003 (ip), vehicle: saline, higher = longer survival) was 93 % of control. The T/C (endpoint: median survival time, dose: 16.0 mg/kg/injection, schedule: Q01DX001 (ip), vehicle: saline, higher = longer survival) was 110 % of control, the T/C (endpoint: median survival time, dose: 18.0 mg/kg/injection, schedule: Q04DX003 (ip), vehicle: saline, higher = longer survival) was 108 % of control and the T/C (endpoint: median survival time, dose: 20.0 mg/kg/injection, schedule: Q01DX001 (ip), vehicle: Klucel (hydroxypropylcellulose) (HPC), higher = longer survival) was 95 % of control. For the same molecule, the T/C (endpoint: median survival time, dose: 24.0 mg/kg/injection, schedule: Q01DX001 (ip), vehicle: saline, higher = longer survival) was 96 % of control and the T/C (endpoint: median survival time, dose: 36.0 mg/kg/injection, schedule: Q01DX001 (ip), vehicle: saline, higher = longer survival) was 98 % of control.
In the case of CC(C)NCC(O)COc1cccc2ccccc12 (centres undefined), the T/C [1] is reported as 95 % of control and 110 % of control, the T/C (endpoint: median survival time, dose: 2.0 mg/kg/injection, schedule: Q02DX009 (ip), vehicle: Klucel (hydroxypropylcellulose) (HPC), higher = longer survival) is reported as 123 % of control and the T/C (endpoint: median survival time, dose: 4.0 mg/kg/injection, schedule: Q02DX009 (ip), vehicle: Klucel (hydroxypropylcellulose) (HPC), higher = longer survival) is reported as 95 % of control and 107 % of control. For the same molecule, the T/C (endpoint: median survival time, dose: 8.0 mg/kg/injection, schedule: Q02DX009 (ip), vehicle: Klucel (hydroxypropylcellulose) (HPC), higher = longer survival) was 100 % of control and 108 % of control, the T/C (endpoint: median survival time, dose: 16.0 mg/kg/injection, schedule: Q02DX009 (ip), vehicle: Klucel (hydroxypropylcellulose) (HPC), higher = longer survival) was 92 % of control and 111 % of control and the T/C (endpoint: median survival time, dose: 32.0 mg/kg/injection, schedule: Q02DX009 (ip), vehicle: Klucel (hydroxypropylcellulose) (HPC), higher = longer survival) was 90 % of control and 105 % of control. For the same molecule, the T/C (endpoint: median survival time, dose: 64.0 mg/kg/injection, schedule: Q02DX009 (ip), vehicle: Klucel (hydroxypropylcellulose) (HPC), higher = longer survival) was 101 % of control and 118 % of control.
For COc1ccccc1NC(=O)CSC(N)=O, the T/C (endpoint: mean tumor weight, dose: 125.0 mg/kg/injection, schedule: Q01DX011 (ip), vehicle: carboxymethylcellulose (CMC), higher = larger tumour) was 97 % of control and the T/C (endpoint: mean tumor weight, dose: 250.0 mg/kg/injection, schedule: Q01DX011 (ip), vehicle: carboxymethylcellulose (CMC), higher = larger tumour) was 47 % of control.
With CNNCc1ccc(C(=O)NC(C)C)cc1 the T/C (endpoint: median survival time, dose: 25.0 mg/kg/injection, schedule: Q08HX024 (ip), vehicle: saline, higher = longer survival) was 100 % of control and the T/C (endpoint: median survival time, dose: 50.0 mg/kg/injection, schedule: Q08HX024 (ip), vehicle: saline, higher = longer survival) was 112 % of control.
O=c1c(O)c(-c2ccccc2)oc2ccccc12 was tested, and the T/C (endpoint: mean tumor weight, dose: 0.19 mg/kg/injection, schedule: Q01DX011 (ip), vehicle: saline, higher = larger tumour) was 79 % of control, the T/C (endpoint: mean tumor weight, dose: 0.39 mg/kg/injection, schedule: Q01DX011 (ip), vehicle: saline, higher = larger tumour) was 50 % of control and the T/C (endpoint: mean tumor weight, dose: 0.78 mg/kg/injection, schedule: Q01DX011 (ip), vehicle: saline, higher = larger tumour) was 105 % of control. The T/C (endpoint: mean tumor weight, dose: 1.56 mg/kg/injection, schedule: Q01DX011 (ip), vehicle: saline, higher = larger tumour) was 52 % of control and 58 % of control, the T/C (endpoint: mean tumor weight, dose: 3.13 mg/kg/injection, schedule: Q01DX011 (ip), vehicle: saline, higher = larger tumour) was 78 % of control and the T/C (endpoint: mean tumor weight, dose: 6.25 mg/kg/injection, schedule: Q01DX011 (ip), vehicle: saline, higher = larger tumour) was 97 % of control. For the same molecule, the T/C (endpoint: mean tumor weight, dose: 12.5 mg/kg/injection, schedule: Q01DX010 (ip), vehicle: saline, higher = larger tumour) was 67 % of control, the T/C (endpoint: mean tumor weight, dose: 12.5 mg/kg/injection, schedule: Q01DX011 (ip), vehicle: saline, higher = larger tumour) was 103 % of control and the T/C (endpoint: mean tumor weight, dose: 25.0 mg/kg/injection, schedule: Q01DX010 (ip), vehicle: saline, higher = larger tumour) was 82 % of control. The T/C (endpoint: mean tumor weight, dose: 50.0 mg/kg/injection, schedule: Q01DX010 (ip), vehicle: saline, higher = larger tumour) was 104 % of control and the T/C (endpoint: mean tumor weight, dose: 100.0 mg/kg/injection, schedule: Q01DX010 (ip), vehicle: saline, higher = larger tumour) was 83 % of control.
COC(=O)C1=C(C(=O)OC)C2CC3C4CC=C5CC(OC(C)=O)CCC5(C)C4CCC3(C)C2=C(OC(C)=O)C1 (centres undefined) was tested, and the T/C (endpoint: mean tumor weight, dose: 62.5 mg/kg/injection, schedule: Q01DX011 (sc), vehicle: saline, higher = larger tumour) was 105 % of control, the T/C (endpoint: mean tumor weight, dose: 125.0 mg/kg/injection, schedule: Q01DX011 (sc), vehicle: saline, higher = larger tumour) was 99 % of control and the T/C (endpoint: mean tumor weight, dose: 250.0 mg/kg/injection, schedule: Q01DX011 (sc), vehicle: saline, higher = larger tumour) was 97 % of control.
In the case of O=C1CC(c2ccc(OCN(CCCl)CCCl)cc2)CC(=O)C1CN(CCCl)CCCl (centres undefined), the T/C (endpoint: median survival time, dose: 0.5 mg/kg/injection, schedule: Q01DX009 (ip), vehicle: Klucel (hydroxypropylcellulose) (HPC), higher = longer survival) is reported as 101 % of control, the T/C (endpoint: median survival time, dose: 1.0 mg/kg/injection, schedule: Q01DX009 (ip), vehicle: Klucel (hydroxypropylcellulose) (HPC), higher = longer survival) is reported as 123 % of control and the T/C [1] is reported as 116 % of control. For the same molecule, the T/C (endpoint: median survival time, dose: 4.0 mg/kg/injection, schedule: Q01DX009 (ip), vehicle: Klucel (hydroxypropylcellulose) (HPC), higher = longer survival) was 123 % of control and the T/C (endpoint: median survival time, dose: 8.0 mg/kg/injection, schedule: Q01DX009 (ip), vehicle: Klucel (hydroxypropylcellulose) (HPC), higher = longer survival) was 115 % of control.
